# Laboratory results from US6962926B2, “Antagonist of MCP-1 function, and compositions and methods of use thereof” (Telik, Inc., priority 2001, dated 2005).
# System: Experimental Allergic Encephalomyelitis (EAE)
# Experiment: Experimental Allergic Encephalomyelitis (EAE) model of multiple sclerosis
# Format: in vivo
# Details: mice, MOG35-55-induced EAE, 30 mg/Kg twice daily for 35 days
# Description: EAE was induced in two groups, each of 10 mice, by subcutaneous injection into the flank of 150 μg of the encephalitogenic peptide MOG35-55 ([…]; Auspep, Melbourne, Australia) emulsified in complete Freund's adjuvant (Difco, Detroit, U.S.A.), supplemented with 4 mg/mL of Mycobacterium tuberculosis, followed by intravenous injection of 350 ng of pertussis vaccine (List Biological Laboratories, Campbell, U.S.A.), with the pertussis vaccine injection repeated after 48 hours.
# Compound 1 was dissolved in 3% aqueous Tween 80 at 4mg/mL and stored at 4° C. Starting on the day of immunization with MOG35-55, the mice were treated twice daily with 30 mg/Kg of compound 1 or an equal volume of water for the 35 day duration of the experiment.
# The mice were monitored daily and neurological impairment was quantified on an arbitrary scale: 0, no detectable impairment; 1, flaccid tail; 2, hind limb weakness; 3, hind limb paralysis; 4, hind limb paralysis and ascending paralysis; 5, moribund or dead.
# At the end of the experiment, the mice were killed and hematoxylin and eosin stained sections of brain and spinal cord were scored blindly by two independent investigators using the following scale: 0, no inflammation; 1, few very small cellular infiltrate in the perivascular areas and meninges; 2, mild cellular infiltrate; 3, moderate cellular infiltrate; 4, severe cellular infiltrate; 5, very large and extensive cellular infiltrate.
# [1] = neurological impairment scale 0-5
smiles,measurement,setting,value
"Cc1nn(C)c2nc(OCCN3CCCC3)c(C(=O)NC(=O)Nc3cccc(OC(C)C)c3)cc12.Cl [Compound 1, 1-{1,3-dimethyl-6-[2-(pyrrolidin-1-yl)ethoxy]-1H-pyrazolo[3,4-b]pyridine-5-carbonyl}-3-(3-isopropoxyphenyl)urea hydrochloride]",Mean onset,,17.2 days
same,EAE incidence,affected/total,5/10
same,Mean cumulative score,[1],7.25
same,Mean maximum score,[1],1.4
